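48-hour exposure; five concentrations; linearly interpolated endpoints. GI50: concentration for 50% inhibition of growth. TGI: total growth inhibition.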
Legend:
Test in all cases: inhibition of tumour cell growth, NCI panel, 48 h
M14 melanoma = system: M14 melanoma
COLO 205 colon = system: COLO 205 colon
PC-3 prostate = system: PC-3 prostate
MDA-MB-231 breast = system: MDA-MB-231 breast
HCT-116 colon = system: HCT-116 colon
NCI-H460 lung = system: NCI-H460 lung
BT-549 breast = system: BT-549 breast
SK-MEL-2 melanoma = system: SK-MEL-2 melanoma
A549 NSCLC = system: A549 NSCLC
HCT-15 colon = system: HCT-15 colon
OVCAR-8 ovarian = system: OVCAR-8 ovarian
UACC-62 melanoma = system: UACC-62 melanoma
HCC-2998 colon = system: HCC-2998 colon
NCI-H226 lung = system: NCI-H226 lung
SF-268 CNS = system: SF-268 CNS
LOX IMVI melanoma = system: LOX IMVI melanoma
UO-31 renal = system: UO-31 renal
UACC-257 melanoma = system: UACC-257 melanoma
OVCAR-4 ovarian = system: OVCAR-4 ovarian
ACHN renal = system: ACHN renal
HOP-92 NSCLC = system: HOP-92 NSCLC
U251 CNS = system: U251 CNS
OVCAR-5 ovarian = system: OVCAR-5 ovarian
SK-MEL-28 melanoma = system: SK-MEL-28 melanoma
786-0 renal = system: 786-0 renal
RPMI-8226 leukemia = system: RPMI-8226 leukemia
EKVX NSCLC = system: EKVX NSCLC
SF-539 CNS = system: SF-539 CNS
MALME-3M melanoma = system: MALME-3M melanoma

Question: Which GI50 (M14 melanoma) does the source give for `COc1cc(C(=O)N2CCN(C=O)C2=S)cc(OC)c1OC` here?
Answer: Its GI50 is 20.6 µM.

Question: And the TGI (M14 melanoma)?
Answer: Its TGI is 41.6 µM.

Question: What about the GI50 (COLO 205 colon) of the same compound?
Answer: The GI50 was 20.2 µM.

Question: What about the TGI (COLO 205 colon) of the same compound?
Answer: Its TGI is 39.4 µM.

Question: And the GI50 (PC-3 prostate)?
Answer: The GI50 was 22.2 µM.

Question: And the TGI (PC-3 prostate)?
Answer: Its TGI is 58.2 µM.

Question: And the GI50 (MDA-MB-231 breast)?
Answer: The GI50 was 21.5 µM.

Question: What about the TGI (MDA-MB-231 breast) of the same compound?
Answer: Its TGI is 57.9 µM.

Question: What about the GI50 (HCT-116 colon) of the same compound?
Answer: Its GI50 is 35.6 µM.

Question: And the TGI (HCT-116 colon)?
Answer: The TGI was over 100 µM.

Question: And the GI50 (NCI-H460 lung)?
Answer: The GI50 was 34 µM.

Question: What about the TGI (NCI-H460 lung) of the same compound?
Answer: Its TGI is over 100 µM.

Question: What about the GI50 (BT-549 breast) of the same compound?
Answer: Its GI50 is 25 µM.

Question: And the TGI (BT-549 breast)?
Answer: The TGI was 62.4 µM.

Question: And the GI50 (SK-MEL-2 melanoma)?
Answer: Its GI50 is 19.9 µM.

Question: And the TGI (SK-MEL-2 melanoma)?
Answer: The TGI was 42 µM.

Question: And the GI50 (A549 NSCLC)?
Answer: The GI50 was 33.2 µM.

Question: And the TGI (A549 NSCLC)?
Answer: Its TGI is 88.8 µM.

Question: And the GI50 (HCT-15 colon)?
Answer: The GI50 was 25.6 µM.

Question: What about the TGI (HCT-15 colon) of the same compound?
Answer: Its TGI is 73.6 µM.

Question: And the GI50 (OVCAR-8 ovarian)?
Answer: Its GI50 is 24 µM.

Question: And the TGI (OVCAR-8 ovarian)?
Answer: The TGI was 65.2 µM.

Question: What about the GI50 (UACC-62 melanoma) of the same compound?
Answer: Its GI50 is 15.8 µM.

Question: What about the TGI (UACC-62 melanoma) of the same compound?
Answer: Its TGI is 30.4 µM.

Question: What about the GI50 (HCC-2998 colon) of the same compound?
Answer: Its GI50 is 19.8 µM.

Question: What about the TGI (HCC-2998 colon) of the same compound?
Answer: Its TGI is 38.7 µM.

Question: And the GI50 (NCI-H226 lung)?
Answer: Its GI50 is 35.9 µM.

Question: What about the TGI (NCI-H226 lung) of the same compound?
Answer: The TGI was 84.6 µM.

Question: And the GI50 (SF-268 CNS)?
Answer: Its GI50 is 21.4 µM.

Question: And the TGI (SF-268 CNS)?
Answer: Its TGI is 43.7 µM.

Question: What about the GI50 (LOX IMVI melanoma) of the same compound?
Answer: Its GI50 is 16.4 µM.

Question: And the TGI (LOX IMVI melanoma)?
Answer: Its TGI is 33.5 µM.

Question: What about the TGI (UO-31 renal) of the same compound?
Answer: Its TGI is 3.36 µM.

Question: And the GI50 (UACC-257 melanoma)?
Answer: Its GI50 is 19.9 µM.

Question: And the TGI (UACC-257 melanoma)?
Answer: Its TGI is 45.4 µM.

Question: What about the GI50 (OVCAR-4 ovarian) of the same compound?
Answer: Its GI50 is 24.1 µM.

Question: And the TGI (OVCAR-4 ovarian)?
Answer: Its TGI is 58.9 µM.

Question: What about the GI50 (ACHN renal) of the same compound?
Answer: The GI50 was 20.1 µM.

Question: What about the TGI (ACHN renal) of the same compound?
Answer: Its TGI is 44.1 µM.

Question: And the GI50 (HOP-92 NSCLC)?
Answer: The GI50 was 9.26 µM.

Question: And the TGI (HOP-92 NSCLC)?
Answer: The TGI was 26.2 µM.

Question: And the GI50 (U251 CNS)?
Answer: Its GI50 is 16.4 µM.

Question: And the TGI (U251 CNS)?
Answer: The TGI was 37.8 µM.

Question: And the GI50 (OVCAR-5 ovarian)?
Answer: The GI50 was 48.5 µM.

Question: And the TGI (OVCAR-5 ovarian)?
Answer: The TGI was over 100 µM.

Question: And the GI50 (SK-MEL-28 melanoma)?
Answer: The GI50 was 29.5 µM.

Question: What about the TGI (SK-MEL-28 melanoma) of the same compound?
Answer: The TGI was over 100 µM.

Question: What about the GI50 (786-0 renal) of the same compound?
Answer: The GI50 was 12.7 µM.

Question: And the TGI (786-0 renal)?
Answer: The TGI was 28 µM.

Question: And the TGI (RPMI-8226 leukemia)?
Answer: The TGI was 42.3 µM.

Question: What about the GI50 (EKVX NSCLC) of the same compound?
Answer: The GI50 was 31.8 µM.

Question: What about the TGI (EKVX NSCLC) of the same compound?
Answer: Its TGI is 97.6 µM.

Question: What about the GI50 (SF-539 CNS) of the same compound?
Answer: Its GI50 is 21.3 µM.

Question: And the TGI (SF-539 CNS)?
Answer: Its TGI is 43.2 µM.

Question: What about the GI50 (MALME-3M melanoma) of the same compound?
Answer: Its GI50 is 24.3 µM.

Question: And the TGI (MALME-3M melanoma)?
Answer: Its TGI is 43.3 µM.

Reference: PubChem BioAssay (NCI)
